Counter-ions that a name gives are not always drawn.

Turning to `O=C(NCC1CCCCC1)c1c(Cl)ccc2nc(N3CCNCC3)ccc12` (as salt: hydrochloride), the melting point lay within 305 to 306 °C.

The molecule `O=C(O)CN1CCN(c2ccc3c(NC(=O)CC4CCCCC4)c(Cl)ccc3n2)CC1` (as salt: salt) returned a melting point of 320 to 326 °C.

`CCCCNCCCc1ccc2c(NC(=O)CC3CCCCC3)c(Cl)ccc2n1` (as salt: hydrochloride) gave a melting point of 219 to 221 °C.

For the molecule `O=C(CC1CCCCC1)Nc1c(Cl)ccc2nc(N3CC[C@H](OCCc4noc(=O)[nH]4)C3)ccc12` [Example 108, N-[6-Chloro-2-[(3S)-3-[2-(4,5-dihydro-5-oxo-1,2,4-oxadiazol-3-yl)ethoxy]-1-pyrrolidinyl]-5-quinolinyl]-cyclohexaneacetamide], the melting point is 185 to 190 °C.

Take `O=C(Nc1c(Cl)ccc2nc(N3CCNCC3)ccc12)C1(C2CCCCC2)CC1` [Example 27, N-[6-Chloro-2-(1-piperazinyl)-5-quinolinyl]-1-cyclohexyl-cyclopropanecarboxamide]: the melting point stood at 219 °C.

As for `Cc1ccc2nc(N3CC[C@H](N)C3)ccc2c1C(=O)NCC1CCCCC1` (as salt: acetate) [Example 58, 2-[(3S)-3-Amino-1-pyrrolidinyl]-N-(cyclohexylmethyl)-6-methyl-5-quinolinecarboxamide, Acetate], the melting point lay within 154 to 155 °C.

As for `CNCCCN(C)c1ccc2c(NC(=O)CC3CCCCC3)c(Cl)ccc2n1` (as salt: hydrochloride) [Example 3, N-[6-Chloro-2-[methyl[3-(methylamino)propyl]amino]-5-quinolinyl]-cyclohexaneacetamide, Dihydrochloride], the melting point fell in the range of 231 to 233 °C.

Molecule `N[C@@H]1CCN(c2ccc3c(NC(=O)CC4CCCCC4)c(Cl)ccc3n2)C1` [Example 30, N-[2-[(3R)-3-Amino-1-pyrrolidinyl]-6-chloro-5-quinolinyl]-cyclohexaneacetamide] came in with a melting point of 201 to 206 °C.

Consider `O=C(O)CCCCc1ccc2c(NC(=O)CC3CCCCC3)c(Cl)ccc2n1` [Example 70, 6-Chloro-5-[(cyclohexylacetyl)amino]-2-quinolinepentanoic Acid], for which the melting point fell in the range of 199 to 201 °C.

Regarding `O=C(CCC1CCCC1)Nc1cccc2ncccc12` [Example 21, N-5-Quinolinyl-cyclopentanepropanamide], the melting point was in the range of 135 to 138 °C.

In turn, `N[C@H]1CCN(c2ccc3c(NC(=O)CC4CCCCC4)c(Cl)ccc3n2)C1` [Example 31, N-[2-[(3S)-3-Amino-1-pyrrolidinyl]-6-chloro-5-quinolinyl]-cyclohexaneacetamide] yielded a melting point of 219 to 226 °C.

With `O=C(NCC1CCCCC1)c1c(Cl)ccc2nc(N3CC(O)C3)ccc12` [Example 53, 6-Chloro-N-(cyclohexylmethyl)-2-(3-hydroxy-1-azetidinyl)-5-quinolinecarboxamide], the melting point is 206 to 208 °C.

Molecule `O=C(CC1CCCCC1)Nc1c(Cl)ccc2nc(N3CC[C@H](NCCc4nnn[nH]4)C3)ccc12` [Example 101, N-[6-Chloro-2-[(3S)-3-[[2-(2H-tetrazol-5-yl)ethyl]amino]-1-pyrrolidinyl]-5-quinolinyl]-cyclohexaneacetamide] yielded a melting point of 220 to 221 °C.

Molecule `O=C(CC1CCCCC1)Nc1c(Cl)ccc2nc(N[C@@H]3CCNC3)ccc12` (as salt: hydrochloride) [Example 14, N-[6-Chloro-2-[(3R)-3-pyrrlidinylamino]-5-quinolinyl]-cyclohexaneacetamide, Dihydrochloride] returned a melting point of 193 to 198 °C.

`O=C(CC1CCCCC1)Nc1c(Cl)ccc2nc(CCCNCCCO)ccc12` [Example 22, N-[6-Chloro-2-[3-[(3-hydroxypropyl)amino]propyl]-5-quinolinyl]-cyclohexaneacetamide] registered a melting point of 159 to 163 °C.

In turn, `CC1(CC(=O)Nc2c(Cl)ccc3nc(N4CCC(C(=O)O)CC4)ccc23)CCCCC1` [Example 79, 1-[6-Chloro-5-[[(1-methylcyclohexyl)acetyl]amino]-2-quinolinyl]-4-piperidinecarboxylic Acid] yielded a melting point of 210 to 212 °C.

Molecule `Cc1ccc2nc(N3CC[C@H](NCCO)C3)ccc2c1NC(=O)CC1CCCCC1` [Example 86, N-[2-[(3S)-3-[(2-Hydroxyethyl)amino]-1-pyrrolidinyl]-6-methyl-5-quinolinyl]-cyclohexaneacetamide] came in with a melting point of 204 to 207 °C.

Consider `N[C@H]1CCN(Cc2ccc3c(NC(=O)CC4CCCCC4)c(Cl)ccc3n2)C1` [Example 59, N-[2-[[(3S)-3-Amino-1-pyrrolidinyl]methyl]-6-chloro-5-quinolinyl]-cyclohexaneacetamide], for which the melting point was 160 °C (dec.).

The molecule `O=C(CC1CCCCC1)Nc1c(Cl)ccc2nc(N3CCC(n4cn[nH]c4=O)CC3)ccc12` [Example 64, N-[6-Chloro-2-[4-(1,5-dihydro-5-oxo-4H-1,2,4-triazol-4-yl)-1-piperidinyl]-5-quinolinyl]-cyclohexaneacetamide] showed a melting point of 310 to 313 °C.

`Cc1ccc2c(C(=O)NCC3CCCCC3)c(Cl)ccc2n1` (as salt: hydrochloride) showed a melting point of 210 to 213 °C.

`O=C(NCC1CCCCC1)c1c(Cl)ccc2nc(N3CC[C@H](NCCO)C3)ccc12` (as salt: hydrochloride) [Example 50, 6-Chloro-N-(cyclohexylmethyl)-2-[(3S)-3-[(2-hydroxyethyl)amino]-1-pyrrolidinyl]-5-quinolinecarboxamide, Hydrochloride] came in with a melting point of 211 to 220 °C.

Molecule `CS(=O)(=O)NC(=O)N[C@H]1CCN(c2ccc3c(NC(=O)CC4CCCCC4)c(Cl)ccc3n2)C1` [Example 89, N-[6-Chloro-2-[(3S)-3-[[[(methylsulfonyl)amino]carbonyl]amino]-1-pyrrolidinyl]-5-quinolinyl]-cyclohexaneacetamide] had a melting point of 303 to 307 °C.

`O=C(NCC1CCCCC1)c1c(Cl)ccc2nc(N3CCC[C@H]3C(=O)O)ccc12` (as salt: trifluoroacetate) yielded a melting point of 168 to 170 °C.

Turning to `O=C(NCC1CCCCC1)c1c(Cl)ccc2nc(N3CCC[C@@H]3C(=O)O)ccc12` [Example 71, 1-[6-Chloro-5-[[(cyclohexylmethyl)amino]carbonyl]-2-quinolinyl]-D-proline], the melting point was 157 to 160 °C.

Consider `CNCCCN(C)c1ccc2c(NC(=O)C3(C4CCCCC4)CC3)c(Cl)ccc2n1` (as salt: hydrochloride), for which the melting point was 215 to 218 °C.

For the molecule `O=C(CC1CCCCC1)Nc1c(Cl)ccc2nc(N3CCC(c4nnn[nH]4)CC3)ccc12` [Example 109, N-[6-Chloro-2-[4-(1H-tetrazol-5-yl)-1-piperidinyl]-5-quinolinyl]cyclohexane-acetamide], the melting point was in the range of 295 to 300 °C.

The molecule `O=C(CCC1CCCC1)Nc1c(Cl)ccc2nc(N3CC[C@H](NCCO)C3)ccc12` [Example 63, N-[6-Chloro-2-[(3S)-3-[(2-hydroxyethyl)amino]-1-pyrrolidinyl]-5-quinolinyl]-cyclopentanepropanamide] came in with a melting point of 186 to 188 °C.

With `O=C(CC1CCCCC1)Nc1c(Cl)ccc2nc(N3CCC(c4nsc(=O)[nH]4)CC3)ccc12` [Example 103, N-[6-Chloro-2-[4-(4,5-dihydro-5-oxo-1,2,4-thiadiazol-3-yl)-1-piperidinyl]-5-quinolinyl]-cyclohexaneacetamide], the melting point was 275 °C.

Turning to `O=C(O)CC1CCN(c2ccc3c(NC(=O)CC4CCCCC4)c(Cl)ccc3n2)CC1` [Example 68, 1-[6-Chloro-5-[(cyclohexylacetyl)amino]-2-quinolinyl]-4-piperidineacetic Acid], the melting point is 242 to 244 °C.

For the molecule `O=C(O)CCNc1ccc2c(NC(=O)CC3CCCCC3)c(Cl)ccc2n1` [Example 41, N-[6-Chloro-5-[(cyclohexylacetyl)amino]-2-quinolinyl]-β-alanine], the melting point is 222 to 224 °C (dec.).

Molecule `O=C(CC1CCCCC1)Nc1c(Cl)ccc2nc(NC[C@@H](O)CO)ccc12` [Example 6, N-[6-Chloro-2-[[(2R)-2,3-dihydroxypropyl]amino]-5-quinolinyl]-cyclohexaneacetamide] gave a melting point of 155 to 159 °C.

Turning to `O=C(NCC1CCCCC1)c1c(Cl)ccc2nc(N3CCC(c4nnn[nH]4)CC3)ccc12` [Example 110, 6-Chloro-N-(cyclohexylmethyl)-2-[4-(1H-tetrazol-5-yl)-1-piperidinyl]-5-quinolinecarboxamide], the melting point lay within 255 to 257 °C.

In turn, `O=C(O)CN1CCN(c2ccc3c(C(=O)NCC4CCCCC4)c(Cl)ccc3n2)CC1` (as salt: acetate) [Example 73, 4-[6-Chloro-5-[[(cyclohexylmethyl)amino]carbonyl]-2-quinolinyl]-1-piperazineacetic acid, Acetate] had a melting point of 185 to 190 °C.

With `O=C(CC1CCCCC1)Nc1c(Cl)ccc2nc(N3CCC(NS(=O)(=O)C(F)(F)F)CC3)ccc12` [Example 114, N-[6-Chloro-2-[4-[[(trifluoromethyl)sulfonyl]amino]-1-piperidinyl]-5-quinolinyl]-cyclohexaneacetamide], the melting point lay in the range of 187 to 189 °C.

`O=C(CC1CCCCC1)Nc1c(Cl)ccc2nc(N3CCC[C@@H]3C(=O)O)ccc12` (as salt: trifluoroacetate) [Example 65, 1-[6-Chloro-5-[(cyclohexylacetyl)amino]-2-quinolinyl]-D-proline, Trifluoroacetate] registered a melting point of 170 to 173 °C.

Regarding `CN[C@H]1CCN(c2ccc3c(NC(=O)CC4CCCCC4)c(Cl)ccc3n2)C1` [Example 35, N-[6-Chloro-2-[(3S)-3-(methylamino)-1-pyrrolidinyl]-5-quinolinyl]-cyclohexaneacetamide], the melting point fell in the range of 164 to 165 °C.

On to `O=C(NCC1CCCCC1)c1c(Cl)ccc2nc(N3CC(NCCO)C3)ccc12` [Example 55, 6-Chloro-N-(cyclohexylmethyl)-2-[3-[(2-hydroxyethyl)amino]-1-azetidinyl]-5-quinolinecarboxamide], for which the melting point lay within 150 to 151 °C.

`O=C(NCC1CCCCC1)c1c(Cl)ccc2nc(N3CCC(C(=O)O)CC3)ccc12` (as salt: sodium) [Example 74, 1-[6-Chloro-5-[[(cyclohexylmethyl)amino]carbonyl]-2-quinolinyl]-4-piperidinecarboxylic Acid, Sodium Salt] yielded a melting point of 320 to 324 °C.

For the origin of these results see patent US7408065B2, “P2X7 receptor antagonists and their use” (AstraZeneca AB, priority 2003, dated 2008).
